Non-standard residues stand in square brackets, D forms with d. Residues, ends and D or L forms follow the SMILES beside them. pT = C[C@@H](OP(=O)(O)O)[C@H](N)C(=O)O; Nle = CCCC[C@H](N)C(=O)O
Legend:
BubR1/Bub3 = target: T1, BubR1/Bub3 (Homo sapiens, UniProt O43684+O60566); experiment: MicroScale Thermophoresis (MST) affinity of MELT peptides for BubR1/Bub3; format: binding; conditions: for Binding of BubR1/Bub3 to phosphorylated MELT peptide, in words: 50 mM NaCl
T1 construct: made in house; host or cells: HEK293 cells (transient co-transfection)
T1 sequence (O60566 whole entry): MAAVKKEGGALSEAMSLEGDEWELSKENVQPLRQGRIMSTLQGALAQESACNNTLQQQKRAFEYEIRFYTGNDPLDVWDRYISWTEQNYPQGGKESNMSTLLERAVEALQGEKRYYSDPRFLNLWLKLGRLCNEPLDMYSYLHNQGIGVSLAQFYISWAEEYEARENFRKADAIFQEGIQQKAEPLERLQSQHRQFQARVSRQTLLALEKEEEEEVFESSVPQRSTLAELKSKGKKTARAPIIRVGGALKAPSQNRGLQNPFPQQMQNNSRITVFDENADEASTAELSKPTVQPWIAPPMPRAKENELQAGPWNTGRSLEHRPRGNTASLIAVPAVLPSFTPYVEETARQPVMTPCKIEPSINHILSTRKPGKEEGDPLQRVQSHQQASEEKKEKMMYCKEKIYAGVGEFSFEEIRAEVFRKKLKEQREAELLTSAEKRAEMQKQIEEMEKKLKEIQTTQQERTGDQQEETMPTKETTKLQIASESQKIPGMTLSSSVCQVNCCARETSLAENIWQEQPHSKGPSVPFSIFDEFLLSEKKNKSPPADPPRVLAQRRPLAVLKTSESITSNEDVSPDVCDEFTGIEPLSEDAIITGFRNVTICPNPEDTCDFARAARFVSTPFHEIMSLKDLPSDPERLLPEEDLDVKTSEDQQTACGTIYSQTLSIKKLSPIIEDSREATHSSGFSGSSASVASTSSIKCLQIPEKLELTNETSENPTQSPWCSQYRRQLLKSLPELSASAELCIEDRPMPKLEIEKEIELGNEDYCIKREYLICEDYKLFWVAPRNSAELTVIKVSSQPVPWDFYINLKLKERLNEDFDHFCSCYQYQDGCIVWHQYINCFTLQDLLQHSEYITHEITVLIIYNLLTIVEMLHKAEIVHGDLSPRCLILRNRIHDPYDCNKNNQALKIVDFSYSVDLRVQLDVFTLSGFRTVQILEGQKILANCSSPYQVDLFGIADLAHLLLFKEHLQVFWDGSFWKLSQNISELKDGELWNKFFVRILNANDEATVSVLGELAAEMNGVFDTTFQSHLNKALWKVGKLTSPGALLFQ
T1 sequence (O43684 whole entry): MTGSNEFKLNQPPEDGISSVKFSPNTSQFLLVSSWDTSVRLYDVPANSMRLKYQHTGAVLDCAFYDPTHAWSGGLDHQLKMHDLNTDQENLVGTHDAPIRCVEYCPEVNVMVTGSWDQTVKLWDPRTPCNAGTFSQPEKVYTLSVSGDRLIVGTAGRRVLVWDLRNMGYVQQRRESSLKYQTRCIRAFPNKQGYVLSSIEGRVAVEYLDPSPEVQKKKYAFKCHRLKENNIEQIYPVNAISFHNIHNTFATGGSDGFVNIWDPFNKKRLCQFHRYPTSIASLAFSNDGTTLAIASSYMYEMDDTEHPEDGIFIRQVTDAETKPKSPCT
Protocol: To determine the affinity of the complexes to MELTp repeats, we used MicroScale Thermophoresis (MST). Purified BubR1/Bub3 and Bub1(1–553)/Bub3 complexes were fluorescently labelled with maleimide chemistry for these measurements and tested for their ability to bind phosphorylated MELT12, MELT16 and MELT18 peptides (Fig. 2e–g; Supplementary Fig. 2). […] We conducted the affinity measurements at 50 mM NaCl as this produced the best quality data for the Bub1(1–553)/Bub3 complex.
MST experiments were performed on a NanoTemper Monolith NT.115 instrument with blue/red channels. Both complexes, BubR1/Bub3 and Bub1(1–553)/Bub3, were labelled using the Monolith NT Protein Labeling kit RED-MALEIMIDE (NanoTemper Technologies GmbH) according to the supplied protocol. The labelling efficiency was ∼90% and 75%, respectively, and it was estimated by independent measurements of the protein concentration combining spectroscopic measurements and a NT-647 red dye calibration curve in the corresponding MST interaction buffer. Samples were prepared in MST buffer (50 mM HEPES (pH 7.8), 200 mM NaCl, 0.5 mM TCEP, 0.05% Tween 20 or 50 mM Tris (pH 7.8), 50 mM NaCl, 0.5 mM TCEP and 0.05% Tween 20), loaded into premium coated capillaries and measurements were performed at 40% MST power. Laser off/on times were 5 and 30 s, respectively. The fluorescently labelled BubR1/Bub3 and Bub1(1–553)/Bub3 were used at concentrations of 25 and 12.5 nM, respectively, at 40% light-emitting diode power for all peptides except for the double-phosphorylated MELT12 peptide in MST buffer 50 mM Tris (pH 7.8), 50 mM NaCl, 0.5 mM TCEP and 0.05% Tween 20 that were performed at 4 nM concentration of the labelled proteins and 80% light-emitting diode power. […] The fraction of bound protein was derived from the averaged (1 s averaged) normalized fluorescence signals at t=8 s of the labelled complexes at different ligand concentrations. […] The number of independent repeats was three for all measurements and error bars show the s.d. between these independent repeats.

Bub1(1–553)/Bub3 = target: T2, Bub1(1–553)/Bub3 (Homo sapiens, UniProt O43683+O43684); experiment: MicroScale Thermophoresis (MST) affinity of MELT peptides for Bub1(1–553)/Bub3; format: binding; conditions: for Binding of Bub1(1–553)/Bub3 to phosphorylated MELT peptide, in words: 50 mM NaCl
T2 construct: 15 μg 3 × FLAG–Bub1(1–553)-expressing plasmid; made in house; host or cells: HEK293 cells (transient co-transfection)
T2 sequence (O43683 1-553 limits assumed): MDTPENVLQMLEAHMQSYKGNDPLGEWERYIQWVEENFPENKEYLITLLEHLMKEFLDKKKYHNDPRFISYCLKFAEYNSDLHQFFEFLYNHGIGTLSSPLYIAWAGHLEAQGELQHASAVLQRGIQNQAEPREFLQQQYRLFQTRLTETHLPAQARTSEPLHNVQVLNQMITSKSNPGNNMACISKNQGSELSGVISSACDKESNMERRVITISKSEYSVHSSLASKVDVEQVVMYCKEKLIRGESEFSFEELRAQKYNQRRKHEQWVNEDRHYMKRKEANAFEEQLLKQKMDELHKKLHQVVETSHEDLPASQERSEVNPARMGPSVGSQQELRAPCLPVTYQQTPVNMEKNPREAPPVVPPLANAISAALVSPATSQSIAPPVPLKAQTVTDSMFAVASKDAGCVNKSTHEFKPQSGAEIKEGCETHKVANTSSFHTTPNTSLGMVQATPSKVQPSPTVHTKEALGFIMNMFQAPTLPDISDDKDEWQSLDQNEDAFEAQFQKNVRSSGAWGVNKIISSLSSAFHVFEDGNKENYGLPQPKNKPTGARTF
T2 sequence (O43684 whole entry): as the sequence (O43684 whole entry) above
Excerpt: We next wanted to quantitatively compare the ability of BubR1/Bub3 and Bub1/Bub3 to bind MELTp repeats. For this, we purified a FLAG–Bub1(1–553)/Bub3 complex in parallel with FLAG–BubR1/Bub3 (we could not obtain sufficient yields of the full-length Bub1/Bub3 complex, but have recently shown that Bub1 1–553 fully supports SAC signalling[29]). To determine the affinity of the complexes to MELTp repeats, we used MicroScale Thermophoresis (MST). Purified BubR1/Bub3 and Bub1(1–553)/Bub3 complexes were fluorescently labelled with maleimide chemistry for these measurements and tested for their ability to bind phosphorylated MELT12, MELT16 and MELT18 peptides (Fig. 2e–g; Supplementary Fig. 2). The binding of BubR1/Bub3 to MELT12 was strongly dependent on phosphorylation and the measured affinity was sensitive to the salt concentration in the buffer as expected for an interaction depending on electrostatic interactions with the phosphorylated threonine[26] (Fig. 2e–g; Supplementary Fig. 2C). We conducted the affinity measurements at 50 mM NaCl as this produced the best quality data for the Bub1(1–553)/Bub3 complex.
Ten 15-cm dishes were each seeded with 6 × 10^6 HEK293 cells and the next day each transfected with 15 μg 3 × FLAG–BubR1 or 15 μg 3 × FLAG–Bub1(1–553)-expressing plasmid and 15 μg untagged Bub3-expressing plasmid using lipofectamine 2000 (Invitrogen). Forty-eight hours after transfection, the cells were collected by trypsination and cells washed in cold PBS with 1 mM phenylmethyl sulphonyl fluoride. The cells were resuspended in 5 ml buffer A (350 mM NaCl, 50 mM Tris·HCl (pH 8.0), 0.05% NP-40 and protease inhibitor cocktail (Roche)) and lysed using a nitrogen cavitation bomb. Lysate was clarified by centrifugation and then incubated with 300 μl FLAG-affinity resin (Sigma-Aldrich) for 90 min at 4 °C. The FLAG resin was washed with 20 ml buffer A and proteins eluted with three times 300 μl buffer A containing […] 3 × FLAG peptide (Sigma). The eluates were pooled and concentrated to 500 μl and loaded on a Superdex 200 10/300 GL column equilibrated with buffer B (150 mM NaCl, 25 mM HEPES·KOH (pH 7.8), 5% glycerol and 0.5 mM TCEP) and peak fractions eluting at ∼500 kDa pooled and concentrated using a vivaspin-4 concentration device. Proteins were stored at −80 °C.
MST experiments were performed on a NanoTemper Monolith NT.115 instrument with blue/red channels. […] The fluorescently labelled protein complexes were mixed with equivalent volumes (10 μl) of a twofold serial dilution of the different peptides starting at concentrations between 10 and 20 times the calculated KD. The fraction of bound protein was derived from the averaged (1 s averaged) normalized fluorescence signals at t=8 s of the labelled complexes at different ligand concentrations. […]

HeLa cells = conditions: Bub1 RNAi 48 h, nocodazole 2 h, reversine 0.5 μM, 25–35% without reversine
Protocol: (a) Outline of the synchronization protocol used in this study. Left, RNAi and rescue protocol; right, Bub1 CRISPR/Cas9 knockout protocol. (b) HeLa cells were treated with a control RNAi oligo (luciferase) or an RNAi oligo targeting Bub1 for 48 h and arrested in mitosis using nocodazole for 2 h. Cells were fixed and stained with 4,6-diamidino-2-phenylindole (DAPI), CREST (centromere marker) and Bub1 antibodies. (c,e,g,i) The kinetochore levels of Bub1, BubR1 and KNL1 were determined in the indicated conditions and normalized to CREST. An unpaired t-test was used for statistical comparison of the different samples in e. […] (f) HeLa cells were transfected with Cas9 protein with guide RNA against Bub1 gene for 96 h and treated with nocodazole for 2 h. […] At least 160 individual kinetochores from eight cells were measured in each condition. […]
Cells growing on coverslips were washed once with PBS and fixed with 4% paraformaldehyde in PHEM buffer (60 mM PIPES, 25 mM HEPES, pH 6.9, 10 mM EGTA and 4 mM MgSO4) for 20 min at room temperature. […] Z-stacks 200 nm apart was recorded on a Deltavision Elite microscope (GE Healthcare), using a × 100 oil objective followed by deconvolution using Softworx before quantification. Protein intensity on kinetochores was quantified by drawing a circle closely along the rod-like CREST staining covering the interested outer kinetochore protein staining on both ends. […]

| Molecule | Binding of BubR1/Bub3 to phosphorylated MELT peptide, in words (BubR1/Bub3) | Binding of Bub1(1–553)/Bub3 to phosphorylated MELT peptide, in words (Bub1(1–553)/Bub3) | BubR1 kinetochore levels remaining (normalized to CREST) (HeLa cells) [%] | BubR1/Bub3 KD (BubR1/Bub3; 50 mM Tris pH 7.8, 50 mM NaCl, 0.5 mM TCEP, 0.05% Tween 20, labelled BubR1/Bub3 25 nM (4 nM for double-phosphorylated MELT12), three independent repeats) | Bub1(1–553)/Bub3 KD (Bub1(1–553)/Bub3; 50 mM Tris pH 7.8, 50 mM NaCl, 0.5 mM TCEP, 0.05% Tween 20, labelled Bub1(1–553)/Bub3 12.5 nM (4 nM for double-phosphorylated MELT12), three independent repeats) |
| --- | --- | --- | --- | --- | --- |
| CCCC[C@H](NC(=O)[C@H](CC(=O)O)NC(=O)[C@H](CC(N)=O)NC(=O)[C@H](CCCCN)NC(=O)[C@H](CC(=O)O)NC(=O)[C@H](CC(=O)O)NC(=O)[C@H](CCC(=O)O)NC(=O)COCCOCCNC(=O)[C@H](CS)NC(=O)COCCOCCNC(=O)CCCC[C@@H]1SC[C@@H]2NC(=O)N[C@@H]21)C(=O)N[C@@H](CC(=O)O)C(=O)N[C@H](C(=O)N[C@H](C(=O)N[C@@H](CCCCN)C(=O)N[C@@H](CO)C(=O)N[C@@H](Cc1ccc(O)cc1)C(=O)N[C@H](C(=O)N[C@H](C(=O)N[C@@H](CCC(=O)O)C(=O)N[C@H](C(=O)N[C@@H](CC(N)=O)C(N)=O)[C@@H](C)CC)[C@@H](C)CC)[C@@H](C)O)[C@@H](C)OP(=O)(O)O)[C@@H](C)CC [MELT12p] | bound | bound |  |  |  |
| CCCC[C@H](NC(=O)[C@H](CC(=O)O)NC(=O)[C@H](CC(N)=O)NC(=O)[C@H](CCCCN)NC(=O)[C@H](Cc1c[nH]cn1)NC(=O)[C@H](CC(N)=O)NC(=O)[C@@H](N)CCC(=O)O)C(=O)N[C@@H](CC(=O)O)C(=O)N[C@H](C(=O)N[C@H](C(=O)N[C@@H](CCC(N)=O)C(=O)N[C@@H](CO)C(=O)N[C@@H](CS)C(=O)N[C@@H](CCCC)C(=O)N[C@H](C(=O)N[C@@H](CCC(=O)O)C(=O)N[C@H](C(=O)N[C@@H](CC(=O)O)C(=O)N[C@@H](Cc1ccc(O)cc1)C(N)=O)[C@@H](C)CC)C(C)C)[C@@H](C)OP(=O)(O)O)[C@@H](C)CC [MELT16p] (H-ENHKND[Nle]DI[pT]QSC[Nle]VEIDY-NH2; N-terminus assumed) | bound | bound |  |  |  |
| c1nc2nc(Nc3ccc(N4CCOCC4)cc3)nc(NC3CCCCC3)c2[nH]1 [reversine] |  |  | ~10 |  |  |
| TDNYSDLEV-Tp-DSHTVFID-amide [MELT18p, single-phosphorylated MELT18 peptide from KNL1] | no binding was detected | no binding was detected |  | No binding | No binding |
